In patent US11951109B2, “EZH2 inhibitors for treating lymphoma” (Epizyme, Inc., priority 2015, dated 2024):

Experiments:
Toledo = details: Table 3; 4+3 model
SUDHL5 = assay: Combination of EPZ-6438 and other therapeutic agents (4+3 model), SUDHL5; details: for combination effect with EPZ-6438, SUDHL5: WT EZH2 GCB
OCI-LY3 = assay: Combination of EPZ-6438 and other therapeutic agents (4+3 model), OCI-LY3; details: WT EXH2 ABC
WSU-DLCL2 = assay: Combination of EPZ-6438 and other therapeutic agents (4+3 model), WSU-DLCL2; details: for combination effect with EPZ-6438, WSU-DLCL2: Mutant EZH2 GCB, EPZ-6438 4 days then co-treatment 3 days (4+3 model)
Farage = assay: Combination of EPZ-6438 and other therapeutic agents (4+3 model), Farage; details: WT EZH2 GCB
RC-K8 = assay: Combination of EPZ-6438 and other therapeutic agents (4+3 model), RC-K8; details: WT EXH2 ABC
SUDHL2 = assay: Combination of EPZ-6438 and other therapeutic agents (4+3 model), SUDHL2; details: WT EXH2 ABC
SU-DHL-10 = assay: Combination of EPZ-6438 and other therapeutic agents (4+3 model), SU-DHL-10; details: for combination effect with EPZ-6438, SU-DHL-10: Mutant EZH2 GCB
KARPAS-422 = assay: Combination of EPZ-6438 and other therapeutic agents (4+3 model), KARPAS-422; details: Mutant EZH2 GCB
TMD8 = assay: Combination of EPZ-6438 and other therapeutic agents (4+3 model), TMD8; details: WT EXH2 ABC
DOHH2 = assay: Combination of EPZ-6438 and other therapeutic agents (4+3 model), DOHH2; type: cell-based; details: for combination effect with EPZ-6438, DOHH2: WT EZH2 GCB
SU-DHL-6 = assay: Combination of EPZ-6438 and other therapeutic agents (4+3 model), SU-DHL-6; details: for combination effect with EPZ-6438, SU-DHL-6: Mutant EZH2 GCB
OCI-LY19 = assay: Combination of EPZ-6438 and other therapeutic agents (4+3 model), OCI-LY19; details: for combination effect with EPZ-6438, OCI-LY19: WT EZH2 GCB
OCI-LY7 = assay: Combination of EPZ-6438 and other therapeutic agents (4+3 model), OCI-LY7; details: WT EZH2 GCB
clinical = details: human, in vivo
From the text: (§1) The phase 1 trial enrolled patients with relapsed/refractory solid tumors and B cell lymphoma. The study employed a standard 3+3 dose escalation design with two planned dose expansion cohorts and clinical pharmacology sub-studies. The primary endpoint was determination of a recommended phase 2 dose or MTD with standard secondary endpoints. The results of the study are also presented in WO 2015195848 and figures therein, the content of which is hereby incorporated by reference in its entirety.
[…]. […] While a decrease in AUC between the first dose and day 15 was observed, there was no further reduction in systemic exposure beyond that time, as evidenced by pre-dose Ctrough levels in the right panel.

H3K27 trimethylation = assay: Phase 1 clinical study: tri-methyl H3K27 levels in skin biopsy by immunohistochemistry; type: in vivo, human; details: for reduction from baseline in PD H3K27 trimethylation in skin biopsy: wild type EZH2
From the text: Pre- and post-dose skin biopsies were collected to assess pharmacodynamics in a surrogate tissue through the measurement of tri-methyl H3K27 levels by immunohistochemistry.

[1] = human, in vivo
From the text: as §1
[…]. One patient discontinued drug for grade 4 neutropenia. Both of these patients were treated in the 800 mg expansion cohort. • Seven patients had dose interruptions. Of these, 6 were from a reversible toxicity and resumed study agent at prior dose without further issue.

SUDHL6 tumor = assay: EPZ-6438 with CHOP chemotherapy in vivo, SUDHL6 tumor (FIG. 3B, 3C)
WSU-DLCL2 tumor = assay: EPZ-6438 with CHOP chemotherapy in vivo, WSU-DLCL2 tumor (FIG. 3A)
Non-Hodgkin's lymphoma = assay: Phase 1 clinical study of EPZ-6438: tumor response; type: in vivo, human
From the text: as §1
The patients enrolled included 19 patients with Non-Hodgkin's lymphoma (NHL) of which 13 patients have DLBCL. Cell-of origin testing was intended for all NHL patients; however, 3 DLBCL patients had insufficient tissue to permit determination of germinal center vs. non-germinal center status. EZH2 mutation testing was centrally performed for 14 NHL patients by the Cobas® test (Roche). One lymphoma patient whose tumor has been treated to date carries an EZH2 mutation. For the solid tumor patients, attention has been given to recruiting patients with INI1-deficient tumors due to the oncogenic role of EZH2 in these tumors.
NHL patients on study were heavily pre-treated with 85% having received three or more prior systemic therapies and nearly half receiving four or more prior regimens.

KARPAS 422 tumor = assay: Single agent activity of EPZ-6438 in KARPAS 422 tumor (FIG. 2A); type: in vivo; details: mutant EZH2 (Y646N)
[2] = patient with primary mediastinal B-cell lymphoma, wild type EZH2, 200 mg orally twice a day

C[C@@H]1C[C@H]2[C@@H]3CCC4=CC(=O)C=C[C@]4(C)[C@@]3(F)[C@@H](O)C[C@]2(C)[C@@]1(O)C(=O)CO [Dexamethasone]
combination effect with EPZ-6438, Toledo (WT EZH2 ABC) (Toledo): No effect | combination effect with EPZ-6438, SUDHL5 (SUDHL5): S | combination effect with EPZ-6438, OCI-LY3 (OCI-LY3): S | combination effect with EPZ-6438, WSU-DLCL2 (WSU-DLCL2): S | combination effect with EPZ-6438, Farage (Farage): S | combination effect with EPZ-6438, RC-K8 (RC-K8): S | combination effect with EPZ-6438, SUDHL2 (SUDHL2): S | combination effect with EPZ-6438, SU-DHL-10 (SU-DHL-10): S | combination effect with EPZ-6438, KARPAS-422 (KARPAS-422): S | combination effect with EPZ-6438, TMD8 (TMD8): S | combination effect with EPZ-6438, DOHH2 (DOHH2): S | combination effect with EPZ-6438, SU-DHL-6 (SU-DHL-6): S | combination effect with EPZ-6438, OCI-LY19 (OCI-LY19; 4+3 model): S | combination effect with EPZ-6438, OCI-LY7 (OCI-LY7): S

CCN(c1cc(-c2ccc(CN3CCOCC3)cc2)cc(C(=O)NCc2c(C)cc(C)[nH]c2=O)c1C)C1CCOCC1 [EPZ-6438, tazemetostat]
PK at steady state throughout the entire dosing range (clinical): dose-proportional linear PK | absorption (clinical): rapid absorption | half-life (clinical): 3 to 5 h | reduction from baseline in PD H3K27 trimethylation in skin biopsy (H3K27 trimethylation; patient with primary mediastinal B-cell lymphoma, 200 mg orally twice a day): 27% | reduction from baseline in PD H3K27 trimethylation in skin biopsy (H3K27 trimethylation; patient with transformed DLBCL, 100 mg orally twice a day): 21% | tri-methyl H3K27 levels across the full thickness of skin (H3K27 trimethylation; pre- and post-dose skin biopsies): dose-dependent reduction | Grade 3 or greater adverse events, fraction of patients [1]: a third | Grade 3 or greater treatment-related adverse events [1]: 5 patients | tolerability [1]: well-tolerated | effect of combination with CHOP chemotherapy on mean tumor volume and survival (SUDHL6 tumor): synergy | effect of combination with CHOP chemotherapy on mean tumor volume (WSU-DLCL2 tumor): synergy | objective response (Non-Hodgkin's lymphoma; DLBCL): 5 of 9 | reduction of abdominal mass (Non-Hodgkin's lymphoma; DLBCL patient with EZH2 mutation, by week 16): 52% | objective response (Non-Hodgkin's lymphoma; evaluable NHL patients): Nine of 15 | objective response (Non-Hodgkin's lymphoma; follicular lymphoma): 3 of 5 | response (Non-Hodgkin's lymphoma; one patient with marginal zone nodular lymphoma, approaching one year on therapy): partial response | FDG uptake (Non-Hodgkin's lymphoma; [2]): reduction | reduction in lesion size via computed tomography (CT) (Non-Hodgkin's lymphoma; [2]): 73% | reduction in lesion size via computed tomography (CT) (Non-Hodgkin's lymphoma; patient with transformed DLBCL, wild type EZH2, 100 mg orally twice a day): 66% | tumor growth, single agent (KARPAS 422 tumor): growth inhibition | activity of EPZ-6438 in combination with prednisolone (OCI-LY19; OCI-LY19, FIG. 1B): possesses activity

C[C@]12C=CC(=O)C=C1CC[C@@H]1[C@@H]2[C@@H](O)C[C@@]2(C)[C@H]1CC[C@]2(O)C(=O)CO [Prednisolone]
combination effect with EPZ-6438, Toledo (WT EZH2 ABC) (Toledo): No effect | combination effect with EPZ-6438, SU-DHL-5 (WT EZH2 GC) (SUDHL5; Table 3): Synergy | combination effect with EPZ-6438, SUDHL5 (SUDHL5): S | combination effect with EPZ-6438, OCI-LY3 (OCI-LY3): S | combination effect with EPZ-6438, WSU-DLCL2 (WSU-DLCL2): S | combination effect with EPZ-6438, WSU-DLCL2 (mutant EZH2 GC) (WSU-DLCL2; Table 3, 4+3 model): Synergy | combination effect with EPZ-6438, Farage (Farage): S | combination effect with EPZ-6438, RC-K8 (RC-K8): S | combination effect with EPZ-6438, SUDHL2 (SUDHL2): S | combination effect with EPZ-6438, SU-DHL-10 (SU-DHL-10): S | combination effect with EPZ-6438, SU-DHL-10 (mutant EZH2 GC) (SU-DHL-10; Table 3): Synergy | combination effect with EPZ-6438, KARPAS-422 (KARPAS-422): S | combination effect with EPZ-6438, TMD8 (TMD8): S | combination effect with EPZ-6438, DOHH2 (WT EZH2 GC) (DOHH2; Table 3): Synergy | combination effect with EPZ-6438, DOHH2 (DOHH2): S | combination effect with EPZ-6438, SU-DHL-6 (SU-DHL-6): S | combination effect with EPZ-6438, SU-DHL-6 (mutant EZH2 GC) (SU-DHL-6; Table 3): Synergy | combination effect with EPZ-6438, OCI-LY-19 (WT EZH2 GC) (OCI-LY19; Table 3, 4+3 model): Synergy | combination effect with EPZ-6438, OCI-LY19 (OCI-LY19; 4+3 model): S | combination effect with EPZ-6438, OCI-LY7 (OCI-LY7): S
